Reference: patent publication US10696615B2, “Prenylated hydroxystilbenes” (The University of Sydney, priority 2011, dated 2020)

Legend:
[1] = system: 786-0; assay: NCI in vitro cancer screen, Renal Cancer; format: cell-based, human; details: 786-0, Renal Cancer
[2] = system: SK-OV-3; assay: NCI in vitro cancer screen, Ovarian Cancer; format: cell-based, human; details: SK-OV-3, Ovarian Cancer
[3] = system: IGROV1; assay: NCI in vitro cancer screen, Ovarian Cancer; format: cell-based, human; details: IGROV1, Ovarian Cancer
[4] = system: HCC-2998; assay: NCI in vitro cancer screen, Colon Cancer; format: cell-based, human; details: HCC-2998, Colon Cancer
[5] = system: SW-620; assay: NCI in vitro cancer screen, Colon Cancer; format: cell-based, human; details: SW-620, Colon Cancer
[6] = system: DU-145; assay: NCI in vitro cancer screen, Prostate Cancer; format: cell-based, human; details: DU-145, Prostate Cancer
[7] = system: ADR-RES (NCI/ADR-RES); assay: NCI in vitro cancer screen, Ovarian Cancer; format: cell-based, human; details: NCI/ADR-RES, Ovarian Cancer
[8] = system: SF-295; assay: NCI in vitro cancer screen, CNS Cancer; format: cell-based, human; details: SF-295, CNS Cancer
[9] = system: OVCAR-3; assay: NCI in vitro cancer screen, Ovarian Cancer; format: cell-based, human; details: OVCAR-3, Ovarian Cancer
[10] = system: SR; assay: NCI in vitro cancer screen, Leukemia; format: cell-based, human; details: Leukemia
[11] = system: MALME-3M; assay: NCI in vitro cancer screen, Melanoma; format: cell-based, human; details: MALME-3M, Melanoma
[12] = system: ACHN; assay: NCI in vitro cancer screen, Renal Cancer; format: cell-based, human; details: Renal Cancer
[13] = system: HCT-116; assay: NCI in vitro cancer screen, Colon Cancer; format: cell-based, human; details: HCT-116, Colon Cancer
[14] = system: MDA-MB-468; assay: NCI in vitro cancer screen, Breast Cancer; format: cell-based, human; details: MDA-MB-468, Breast Cancer
[15] = system: MDA-MB-435; assay: NCI in vitro cancer screen, Melanoma; format: cell-based, human; details: MDA-MB-435, Melanoma
[16] = system: SK-MEL-5; assay: NCI in vitro cancer screen, Melanoma; format: cell-based, human; details: SK-MEL-5, Melanoma
[17] = system: human tumor cell lines; assay: NCI in vitro cancer screen, whole panel (summary statements); format: cell-based; details: result in words
[18] = system: CAKI-1; assay: NCI in vitro cancer screen, Renal Cancer; format: cell-based, human; details: CAKI-1, Renal Cancer
[19] = system: NCI-H23; assay: NCI in vitro cancer screen, Non-Small Cell Lung Cancer; format: cell-based, human; details: NCI-H23, Non-Small Cell Lung Cancer
[20] = system: SNB-19; assay: NCI in vitro cancer screen, CNS Cancer; format: cell-based, human; details: SNB-19, CNS Cancer
[21] = system: UACC-62; assay: NCI in vitro cancer screen, Melanoma; format: cell-based, human; details: UACC-62, Melanoma
[22] = system: TK-10; assay: NCI in vitro cancer screen, Renal Cancer; format: cell-based, human; details: TK-10, Renal Cancer
[23] = system: U251; assay: NCI in vitro cancer screen, CNS Cancer; format: cell-based, human; details: U251, CNS Cancer
[24] = system: NCI-H226; assay: NCI in vitro cancer screen, Non-Small Cell Lung Cancer; format: cell-based, human; details: NCI-H226, Non-Small Cell Lung Cancer
[25] = system: HS 578T; assay: NCI in vitro cancer screen, Breast Cancer; format: cell-based, human; details: Breast Cancer
[26] = system: HOP-62; assay: NCI in vitro cancer screen, Non-Small Cell Lung Cancer; format: cell-based, human; details: HOP-62, Non-Small Cell Lung Cancer
[27] = system: NCI-H460; assay: as above; format: cell-based, human; details: NCI-H460, Non-Small Cell Lung Cancer
[28] = system: K-562; assay: NCI in vitro cancer screen, Leukemia; format: cell-based, human; details: K-562, Leukemia
[29] = Homo sapiens, read-out: LC50 (the source's name)

CC(C)=CCOc1cc(O)cc(/C=C/c2ccc(O)c(O)c2)c1CC=C(C)C [USYDS14, (E)-2-(3-methyl-2-buten-1-yl)-3-(3-methyl-2-butenyloxy)-3′,4′,5-trihydroxystilbene]
TGI [1]: 11.8 µM
GI50 ([1]; Homo sapiens): 3.44 µM
LC50 (50% net cell kill) ([1]; Homo sapiens): 40 µM
GI50 ([2]; Homo sapiens): 2.85 µM
CC50 [2, 29]: 37.2 µM
TGI [2]: 13.7 µM
GI50 ([3]; Homo sapiens, IGROV-1): 3.65 µM
CC50 ([3]; Homo sapiens, IGROV-1, read-out: LC50 (the source's name)): 65.4 µM
TGI [3]: 13.7 µM
TGI [4]: 10.6 µM
GI50 ([4]; Homo sapiens): 2.9 µM
CC50 [4, 29]: 40.7 µM
GI50 ([5]; Homo sapiens): 2.88 µM
CC50 [5, 29]: 63.8 µM
TGI [5]: 16.7 µM
TGI [6]: 21.1 µM
GI50 ([6]; Homo sapiens): 8.2 µM
CC50 [6, 29]: 47.5 µM
GI50 ([7]; Homo sapiens): 0.78 µM
CC50 [7, 29]: 49.3 µM
TGI [7]: 11.4 µM
GI50 ([8]; Homo sapiens): 3.91 µM
CC50 [8, 29]: 43.1 µM
TGI [8]: 15.3 µM
GI50 ([9]; Homo sapiens): 3.52 µM
CC50 [9, 29]: 41.1 µM
TGI [9]: 13.5 µM
GI50 ([10]; Homo sapiens): 0.67 µM
CC50 [10, 29]: > 100 µM
TGI [10]: 24.6 µM
GI50 ([11]; Homo sapiens): 3.14 µM
CC50 [11, 29]: 54.8 µM
TGI [11]: 21.8 µM
GI50 ([12]; Homo sapiens): 2.98 µM
CC50 [12, 29]: 36.5 µM
TGI [12]: 12.5 µM
TGI [13]: 16 µM
GI50 ([13]; Homo sapiens): 4.2 µM
LC50 (concentration killing 50% of cells) ([13]; Homo sapiens): 46.6 µM
GI50 ([14]; Homo sapiens): 1.42 µM
CC50 [14, 29]: 16.4 µM
TGI [14]: 4.12 µM
GI50 ([15]; Homo sapiens): 0.373 µM
CC50 [15, 29]: 40 µM
TGI [15]: 8.45 µM
GI50 ([16]; Homo sapiens): 0.554 µM
CC50 [16, 29]: 4.46 µM
TGI [16]: 1.87 µM
inhibition of cancerous cell growth [17]: structure dependent inhibition of cancerous cell growth
TGI [18]: 17.5 µM
GI50 ([18]; Homo sapiens): 3.59 µM
CC50 [18, 29]: 45.4 µM
GI50 ([19]; Homo sapiens): 2.92 µM
LC50 ([19]; Homo sapiens): 57.6 µM
TGI [19]: 17.3 µM
GI50 ([20]; Homo sapiens): 5.01 µM
CC50 [20, 29]: 52.2 µM
TGI [20]: 20.1 µM
GI50 ([21]; Homo sapiens): 2.61 µM
CC50 [21, 29]: 39.1 µM
TGI [21]: 13.2 µM
GI50 ([22]; Homo sapiens): 3.79 µM
LC50 ([22]; Homo sapiens): 35.4 µM
TGI [22]: 12.1 µM
GI50 ([23]; Homo sapiens, U-251): 3.09 µM
CC50 ([23]; Homo sapiens, U-251, read-out: LC50 (the source's name)): 39.4 µM
TGI [23]: 12.7 µM
GI50 ([24]; Homo sapiens): 1.72 µM
LC50 (50% lethal concentration) ([24]; Homo sapiens): 7.52 µM
TGI [24]: 3.6 µM
TGI [25]: 20.5 µM
GI50 ([25]; Homo sapiens): 2.71 µM
CC50 [25, 29]: > 100 µM
TGI [26]: 3.77 µM
GI50 ([26]; Homo sapiens): 1.43 µM
CC50 [26, 29]: 9.98 µM
GI50 ([27]; Homo sapiens): 3.87 µM
CC50 [27, 29]: 51.2 µM
TGI [27]: 14.9 µM
GI50 ([28]; Homo sapiens, K562): 0.833 µM
CC50 ([28]; Homo sapiens, K562, read-out: LC50 (the source's name)): > 100 µM
TGI [28]: 14.2 µM
